In ChEMBL document CHEMBL1155451, “Complexes of bacterial nicotinate mononucleotide adenylyltransferase with inhibitors: implication for structure-based drug design and improvement” (J Med Chem, 2010) one finds IC50 and inhibition data, which are given here for three molecules.

In general, pIC50 refers to the IC50 on a negative log10 scale, so that one unit is a factor of ten.

pIC50: −log10 of the molar value. Active and inactive are the calls of the source. No cut-off for these calls is given here.

Assay [1] deals with T1, Probable nicotinate-nucleotide adenylyltransferase (Bacillus anthracis, UniProt C3L5T6).
T1 sequence (C3L5T6 whole entry): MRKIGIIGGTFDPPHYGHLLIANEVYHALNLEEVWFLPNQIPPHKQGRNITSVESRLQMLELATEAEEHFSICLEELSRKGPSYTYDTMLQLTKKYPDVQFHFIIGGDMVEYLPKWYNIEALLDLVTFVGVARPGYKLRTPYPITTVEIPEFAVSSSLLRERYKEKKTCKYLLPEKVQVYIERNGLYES

In assay [2] the target is T2, Probable nicotinate-nucleotide adenylyltransferase (Bacillus anthracis) (UniProt C3L5T6).
T2 sequence (whole entry): T1 sequence (C3L5T6 whole entry)
The assay can be described thus: Inhibition of Bacillus anthracis nicotinate-nucleotide adenosyltransferase up to 100 uM preincubated for 5 mins before addition of substrate by malachite green reagent method.

In turn, `CC(/C=N/NC(=O)CCC(=O)Nc1ccc(Br)cc1)c1ccc2ccccc2c1` (stereo not drawn) had a pIC50 in assay [1] of under 3.70.
Same read-out and setting: then `O=C(O)CN(/N=C/c1cccc2ccccc12)C(=O)CCC(=O)Nc1ccccc1Cl`, with under 3.70.
On to `O=C(O)CN(/N=C/c1ccc(/C=N/N(CC(=O)O)C(=O)CCC(=O)Nc2ccccc2Cl)cc1)C(=O)CCC(=O)Nc1ccccc1Cl`, for which the inhibition result in assay [2] is “inactive”.
